In PubChem BioAssay AID280 (DTP/NCI, 2004) one finds T/C data, which are given here for 13 compounds.

Molecules are shown by their SMILES. Values joined by “and” are separate entries in the source; they are usually repeats but may differ in a detail not shown here. Identical values can stand only once. Toxic doses and inconclusive results are not listed.

For the assay, the system named is nude mice, LOX melanoma ip, survival T/C. Kind of assay: NCI In Vivo Anticancer Drug Screen. Data for tumor model Human Amelanotic Melanoma (LOX) (intraperitoneal) in NU/NU BALB/C (nude) mice. Conditions: endpoint: median survival time, higher = longer survival. As for the experimental part:
The antitumor activity of compounds was measured in mice bearing transplantable tumors. Survival or tumor size were measured and the results are expressed as the measurement made in the treated group (T) divided by the measurement made in the vehicle treated control group (C). The tumor model used in this assay is Human Amelanotic Melanoma (LOX) (intraperitoneal) in NU/NU BALB/C (nude) mice

[1] abbreviates: dose: 25.0 mg/kg/injection, schedule: Q04DX003 (ip), vehicle: saline with Tween-80.
Setting [2] is: dose: 50.0 mg/kg/injection, schedule: Q04DX003 (ip), vehicle: saline with Tween-80.
The mark [3] stands for this setting: dose: 100.0 mg/kg/injection, schedule: Q04DX003 (ip), vehicle: saline with Tween-80.
[4] abbreviates: dose: 37.5 mg/kg/injection, schedule: Q04DX003 (ip), vehicle: Klucel (hydroxypropylcellulose) (HPC).
[5] abbreviates: dose: 75.0 mg/kg/injection, schedule: Q04DX003 (ip), vehicle: Klucel (hydroxypropylcellulose) (HPC).
Setting [6] is: dose: 60.0 mg/kg/injection, schedule: Q04DX003 (ip), vehicle: saline.
Setting [7] is: dose: 12.5 mg/kg/injection, schedule: Q04DX003 (ip), vehicle: saline with Tween-80.

Regarding `COc1cc2c(c(OC)c1OC)-c1cccc(=O)cc1C(NC(C)=O)CC2` (stereo not given), the T/C (dose: 12.5 mg/kg/injection, schedule: Q04DX003 (ip), vehicle: saline) is 104 % of control; the T/C (dose: 25.0 mg/kg/injection, schedule: Q04DX003 (ip), vehicle: saline) was 122 % of control; the T/C (dose: 50.0 mg/kg/injection, schedule: Q04DX003 (ip), vehicle: saline) was 110 % of control; the T/C (dose: 100.0 mg/kg/injection, schedule: Q04DX003 (ip), vehicle: saline) was 106 % of control; the T/C (dose: 200.0 mg/kg/injection, schedule: Q04DX003 (ip), vehicle: saline) is 103 % of control.

For the compound `CCC(=O)Sc1ccccc1C(=O)Nc1ccc(Cl)cc1`, the T/C by setting is: under setting [1], 99 % of control; under setting [2], 107 % of control; under setting [3], 110 % of control; (dose: 200.0 mg/kg/injection, schedule: Q04DX003 (ip), vehicle: saline with Tween-80) 113 % of control.

Turning to `O=[N+]([O-])c1ccc([I+]c2ccccc2)cc1`, the T/C by setting is: (dose: 9.38 mg/kg/injection, schedule: Q04DX003 (ip), vehicle: Klucel (hydroxypropylcellulose) (HPC)) 121 % of control; (dose: 16.2 mg/kg/injection, schedule: Q04DX003 (ip), vehicle: Klucel (hydroxypropylcellulose) (HPC)) 115 % of control; (dose: 27.0 mg/kg/injection, schedule: Q04DX003 (ip), vehicle: Klucel (hydroxypropylcellulose) (HPC)) 114 % of control and 101 % of control; under setting [4], 108 % of control; (dose: 45.0 mg/kg/injection, schedule: Q04DX003 (ip), vehicle: Klucel (hydroxypropylcellulose) (HPC)) 105 % of control and 120 % of control; under setting [5], 93 % of control.

Turning to `O=C(O)Cc1cccc2c(=O)cc(-c3ccccc3)oc12`, the T/C (dose: 25.0 mg/kg/injection, schedule: Q04DX003 (ip), vehicle: sodium bicarbonate) was 108 % of control and the T/C (dose: 50.0 mg/kg/injection, schedule: Q04DX003 (ip), vehicle: sodium bicarbonate) is 119 % of control.

Turning to `O=C(O)C1CC(O)CN1` (stereo not given), the T/C runs as follows: (dose: 75.0 mg/kg/injection, schedule: Q04DX003 (ip), vehicle: saline) 108 % of control; (dose: 300.0 mg/kg/injection, schedule: Q04DX003 (ip), vehicle: saline) 112 % of control; (dose: 600.0 mg/kg/injection, schedule: Q04DX003 (ip), vehicle: saline) 107 % of control; (dose: 1200.0 mg/kg/injection, schedule: Q04DX003 (ip), vehicle: saline) 114 % of control.

As for `O=P1(N(CCCl)CCCl)NCCCO1` (stereo not given), the T/C runs as follows: (dose: 40.0 mg/kg/injection, schedule: Q04DX003 (ip), vehicle: saline) 111 % of control; under setting [6], 115 % of control; (dose: 90.0 mg/kg/injection, schedule: Q04DX003 (ip), vehicle: saline) 101 % of control.

Take `O=c1cc(-c2ccccc2)[nH]c2c1CCCC2`: the T/C reads like this: (dose: 75.0 mg/kg/injection, schedule: Q04DX003 (ip), vehicle: saline with Tween-80) 115 % of control; (dose: 150.0 mg/kg/injection, schedule: Q04DX003 (ip), vehicle: saline with Tween-80) 115 % of control; (dose: 259.0 mg/kg/injection, schedule: Q04DX003 (ip), vehicle: saline with Tween-80) 106 % of control; (dose: 300.0 mg/kg/injection, schedule: Q04DX003 (ip), vehicle: saline with Tween-80) 114 % of control; (dose: 432.0 mg/kg/injection, schedule: Q04DX003 (ip), vehicle: saline with Tween-80) 100 % of control; (dose: 600.0 mg/kg/injection, schedule: Q04DX003 (ip), vehicle: saline with Tween-80) 124 % of control. Moreover, where the note is “dose: 720.0 mg/kg/injection, schedule: Q04DX003 (ip), vehicle: saline with Tween-80”, the T/C was 114 % of control.

Turning to `CCCCCC[Se][Se]CCCCCC`, the T/C under setting [4] was 98 % of control; the T/C under setting [5] is 96 % of control; the T/C (dose: 150.0 mg/kg/injection, schedule: Q04DX003 (ip), vehicle: Klucel (hydroxypropylcellulose) (HPC)) was 93 % of control; the T/C (dose: 300.0 mg/kg/injection, schedule: Q04DX003 (ip), vehicle: Klucel (hydroxypropylcellulose) (HPC)) is 105 % of control.

`CC[C@@H](C)[C@H]([C@H](CC(=O)N1CCC[C@@H]1[C@@H](OC)[C@H](C)C(=O)N[C@H](Cc1ccccc1)c1nccs1)OC)N(C)C(=O)[C@H](NC(=O)[C@@H](C(C)C)N(C)C)C(C)C`: the T/C is, setting by setting: (dose: 3.0 micrograms/kg/injection, schedule: Q04DX003 (ip), vehicle: saline + alcohol) 109 % of control; (dose: 3.25 micrograms/kg/injection, schedule: Q04DX003 (ip), vehicle: saline + alcohol) 170 % of control; (dose: 6.0 micrograms/kg/injection, schedule: Q04DX003 (ip), vehicle: saline + alcohol) 113 % of control; (dose: 6.5 micrograms/kg/injection, schedule: Q04DX003 (ip), vehicle: saline + alcohol) 206 % of control; (dose: 9.0 micrograms/kg/injection, schedule: Q04DX003 (ip), vehicle: saline + alcohol) 115 % of control; (dose: 13.0 micrograms/kg/injection, schedule: Q04DX003 (ip), vehicle: saline + alcohol) 301 % of control. The T/C (dose: 15.0 micrograms/kg/injection, schedule: Q04DX003 (ip), vehicle: saline + alcohol) was 192 % of control; the T/C (dose: 26.0 micrograms/kg/injection, schedule: Q04DX003 (ip), vehicle: saline + alcohol) was 181 % of control and 301 % of control; the T/C (dose: 43.0 micrograms/kg/injection, schedule: Q04DX003 (ip), vehicle: saline + alcohol) was 340 % of control.

With `Cc1ccc(C(=Nc2ccccc2)N=P(c2ccccc2)(c2ccccc2)c2ccccc2)cc1`, the T/C under setting [7] was 106 % of control, the T/C under setting [1] is 115 % of control, the T/C under setting [2] is 119 % of control and the T/C under setting [3] is 104 % of control.

`O=C(CCCN1CCC(C(O)c2ccc(F)cc2)CC1)c1ccc(F)cc1` (stereo not given): the T/C was 95 % of control (dose: 6.25 mg/kg/injection, schedule: Q01DX009 (ip), vehicle: saline with Tween-80); 107 % of control (dose: 12.5 mg/kg/injection, schedule: Q01DX009 (ip), vehicle: saline with Tween-80); 109 % of control (dose: 12.5 mg/kg/injection, schedule: Q01DX009 (oral), vehicle: saline with Tween-80); 101 % of control (dose: 25.0 mg/kg/injection, schedule: Q01DX009 (ip), vehicle: saline with Tween-80); 99 % of control (dose: 25.0 mg/kg/injection, schedule: Q01DX009 (oral), vehicle: saline with Tween-80); 115 % of control (dose: 50.0 mg/kg/injection, schedule: Q01DX009 (ip), vehicle: saline with Tween-80). Also, the T/C is, setting by setting: (dose: 50.0 mg/kg/injection, schedule: Q01DX009 (oral), vehicle: saline with Tween-80) 107 % of control; (dose: 100.0 mg/kg/injection, schedule: Q01DX009 (oral), vehicle: saline with Tween-80) 107 % of control.

With `COC(=O)C1C2CCCN2OC1(C)CO` (stereo not given), the T/C was 103 % of control (dose: 30.0 mg/kg/injection, schedule: Q04DX003 (ip), vehicle: saline); 97 % of control under setting [6]; 111 % of control (dose: 62.5 mg/kg/injection, schedule: Q04DX003 (ip), vehicle: saline with Tween-80); 99 % of control (dose: 120.0 mg/kg/injection, schedule: Q04DX003 (ip), vehicle: saline); 89 % of control (dose: 240.0 mg/kg/injection, schedule: Q04DX003 (ip), vehicle: saline); 101 % of control (dose: 250.0 mg/kg/injection, schedule: Q04DX003 (ip), vehicle: saline with Tween-80). Also, the T/C was 100 % of control (dose: 500.0 mg/kg/injection, schedule: Q04DX003 (ip), vehicle: saline with Tween-80) and 98 % of control (dose: 1000.0 mg/kg/injection, schedule: Q04DX003 (ip), vehicle: saline with Tween-80).

For the compound `CO[C@@]12[C@@H]3N[C@@H]3CN1C1=C(C(=O)C(NCCc3ccccn3)=C(C)C1=O)[C@@H]2COC(N)=O`, the T/C is 187 % of control (dose: 1.5 mg/kg/injection, schedule: Q04DX003 (ip), vehicle: saline with Tween-80); 192 % of control (dose: 3.12 mg/kg/injection, schedule: Q04DX003 (ip), vehicle: saline with Tween-80); 159 % of control (dose: 3.13 mg/kg/injection, schedule: Q04DX003 (ip), vehicle: saline with Tween-80); 179 % of control and 198 % of control (dose: 6.25 mg/kg/injection, schedule: Q04DX003 (ip), vehicle: saline with Tween-80); 317 % of control and 340 % of control under setting [7]; 317 % of control and 340 % of control under setting [1].
